Laboratory results: ChEMBL document CHEMBL5576084, “Development of chromone-thiazolidine-2,4-dione Knoevenagel conjugates as apoptosis inducing agents” (Bioorg Med Chem Lett, 2024)

Assays:
[1] = tested on: SK-MEL-28; assay: Cytotoxicity against human SK-MEL-28 cells assessed as inhibition of cell growth incubated for 48 hrs by MTT assay; format: functional, cell-based; conditions: SK-MEL-28, 48 h
[2] = tested on: A549; assay: Cytotoxicity against human A549 cells assessed as inhibition of cell growth incubated for 48 hrs by MTT assay; format: functional, cell-based; conditions: A549, 48 h
[3] = tested on: HepG2; assay: Cytotoxicity against human HepG2 cells assessed as inhibition of cell growth incubated for 48 hrs by MTT assay; format: functional, cell-based; conditions: HepG2, 48 h
[4] = tested on: MCF7; assay: Cytotoxicity against human MCF7 cells assessed as inhibition of cell growth incubated for 48 hrs by MTT assay; format: functional, cell-based; conditions: MCF7, 48 h
[5] = tested on: HCT-116; assay: Cytotoxicity against human HCT-116 cells assessed as inhibition of cell growth incubated for 48 hrs by MTT assay; format: functional, cell-based; conditions: HCT-116, 48 h
[6] = Cytotoxicity against HEK293 cells assessed as inhibition of cell growth incubated for 48 hrs by MTT assay; format: toxicity, cell-based; conditions: human

| SMILES | IC50 [1] [µM] | IC50 [2] [µM] | IC50 [3] [µM] | IC50 [4] [µM] | IC50 [5] [µM] | IC50 at 48 h [6] [µM] |
| --- | --- | --- | --- | --- | --- | --- |
| Cc1ccc(C(=O)CN2C(=O)S/C(=C\c3coc4cc(Br)ccc4c3=O)C2=O)cc1 | > 10 | 6.5 | > 10 | 10.1 | > 10 | 15.1 |
| Cc1ccc2occ(/C=C3\SC(=O)N(CC(=O)c4ccc(F)cc4)C3=O)c(=O)c2c1 | > 10 | > 10 | > 10 | > 10 | > 10 | 15.2 |
| O=C(CN1C(=O)S/C(=C\c2coc3cc(Br)ccc3c2=O)C1=O)c1ccccc1 | > 10 | 8.8 | > 10 | > 10 | > 10 | 21.1 |
| O=C(CN1C(=O)S/C(=C\c2coc3ccc(Br)cc3c2=O)C1=O)c1ccccc1 | > 10 | > 10 | > 10 | > 10 | > 10 | 13.2 |
| N#Cc1ccc(C(=O)CN2C(=O)S/C(=C\c3coc4ccccc4c3=O)C2=O)cc1 | > 10 | 8.8 | > 10 | > 10 | > 10 | 27.8 |
| O=C(CN1C(=O)S/C(=C\c2coc3ccccc3c2=O)C1=O)c1ccc(Cl)c(Cl)c1 | > 10 | > 10 | > 10 | 9.1 | > 10 | 19.6 |
| Cc1ccc(C(=O)CN2C(=O)S/C(=C\c3coc4ccccc4c3=O)C2=O)cc1 | > 10 | 8.7 | > 10 | > 10 | > 10 | 28.2 |
| Cc1ccc(C(=O)CN2C(=O)S/C(=C\c3coc4cc(F)ccc4c3=O)C2=O)cc1 | > 10 | > 10 | > 10 | > 10 | > 10 | 16.6 |
| O=C(CN1C(=O)S/C(=C\c2coc3ccccc3c2=O)C1=O)c1ccccc1 | > 10 | > 10 | > 10 | > 10 | > 10 | 17.5 |
| O=C(CN1C(=O)S/C(=C\c2coc3cc(Br)ccc3c2=O)C1=O)c1ccc(Cl)cc1 | > 10 | 8.4 | > 10 | > 10 | > 10 | 18.1 |
| O=C(CN1C(=O)S/C(=C\c2coc3ccccc3c2=O)C1=O)c1ccc(Cl)cc1 | > 10 | > 10 | 12.3 | 8.7 | > 10 | 25 |
| O=C(CN1C(=O)S/C(=C\c2coc3ccccc3c2=O)C1=O)c1ccc(Br)cc1 | > 10 | 7.8 | > 10 | > 10 | > 10 | 21.1 |
| COc1ccc(C(=O)CN2C(=O)S/C(=C\c3coc4ccccc4c3=O)C2=O)cc1 | > 10 | 8.8 | > 10 | > 10 | > 10 | 168 |
| O=C(CN1C(=O)S/C(=C\c2coc3ccccc3c2=O)C1=O)c1ccc(F)cc1 | > 10 | 8.2 | > 10 | > 10 | > 10 | 15.5 |
| O=C(CN1C(=O)S/C(=C\c2coc3cc(Br)ccc3c2=O)C1=O)c1ccc(Br)cc1 | > 10 | > 10 | > 10 | > 10 | > 10 | 23.6 |
| Cc1ccc2occ(/C=C3\SC(=O)N(CC(=O)c4ccccc4)C3=O)c(=O)c2c1 | > 10 | > 10 | > 10 | > 10 | > 10 | 13.6 |
| Cc1ccc(C(=O)CN2C(=O)S/C(=C\c3coc4ccc(C)cc4c3=O)C2=O)cc1 | > 10 | 8.2 | > 10 | > 10 | > 10 | 14.1 |
| Cc1ccc2occ(/C=C3\SC(=O)N(CC(=O)c4ccc(Br)cc4)C3=O)c(=O)c2c1 | 9.1 | > 10 | > 10 | > 10 | > 10 | 16.5 |
| O=C(CN1C(=O)S/C(=C\c2coc3cc(F)ccc3c2=O)C1=O)c1ccc(Cl)cc1 | > 10 | > 10 | > 10 | > 10 | > 10 | 13.4 |
| Cc1ccc2occ(/C=C3\SC(=O)N(CC(=O)c4ccc(Cl)cc4)C3=O)c(=O)c2c1 | > 10 | 6.3 | > 10 | 8.9 | > 10 | 15.2 |
